Read-outs that look alike come from different tables or passages of the source.

The target of assay [1] is T1, human adrenergic-α2C receptor (Homo sapiens, UniProt P18825).
T1 construct: expressed in transfected cells; host or cells: CHO cells, stably transfected; membranes
T1 sequence (P18825 1-462): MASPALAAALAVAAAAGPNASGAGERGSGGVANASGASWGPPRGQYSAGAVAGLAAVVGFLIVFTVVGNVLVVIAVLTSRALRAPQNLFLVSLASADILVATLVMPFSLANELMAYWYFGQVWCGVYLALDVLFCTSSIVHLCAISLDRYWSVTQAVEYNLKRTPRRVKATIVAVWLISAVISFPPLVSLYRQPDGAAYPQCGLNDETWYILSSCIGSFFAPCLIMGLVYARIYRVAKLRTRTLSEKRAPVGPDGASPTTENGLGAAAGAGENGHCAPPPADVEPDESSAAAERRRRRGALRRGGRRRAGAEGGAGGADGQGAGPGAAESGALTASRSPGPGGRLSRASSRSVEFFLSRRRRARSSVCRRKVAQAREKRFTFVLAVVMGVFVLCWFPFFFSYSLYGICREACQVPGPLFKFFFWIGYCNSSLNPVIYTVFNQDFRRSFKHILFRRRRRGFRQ
Briefly: Radioligand binding experiment for α2C-adrenoceptor ([3H]raulwolscine, CHO cell membranes). On the procedure:
(§1) The interaction of a compound of Formula (I) with α2C-adrenoceptor receptors was assessed in in vitro radioligand binding experiments. In general, a low concentration of a radioligand with a high binding affinity for a particular receptor or transporter is incubated with a sample of a tissue preparation enriched in a particular receptor or transporter or with a preparation of cells expressing cloned human receptors in a buffered medium. During the incubation, the radioligand binds to the receptor or transporter. When equilibrium of binding is reached, the receptor bound radioactivity is separated from the non-bound radioactivity, and the receptor- or transporter-bound activity is counted. The interaction of the test compounds with the receptor is assessed in competition binding experiments. Various concentrations of the test compound are added to the incubation mixture containing the receptor- or transporter preparation and the radioligand. The test compound in proportion to its binding affinity and its concentration inhibits binding of the radioligand. The radioligand used for hα2A and hα2C receptor binding was [^3H]-raulwolscine.
(§2) CHO cells, stabile transfected with human adrenergic-α2A and α2C receptor cDNA, were cultured in Dulbecco's Modified Eagle's Medium (DMEM)/Nutrient mixture Ham's F12 (ratio 1:1) (Gibco, Gent-Belgium) supplemented with 10% heat inactivated fetal calf serum (Life Technologies, Merelbeke-Belgium) and antibiotics (100 IU/ml penicillin G, 100 μg/ml streptomycin sulphate, 110 μg/ml pyruvic acid and 100 μg/ml L-glutamine). One day before collection, cells were induced with 5 mM sodiumbutyrate. Upon 80-90% of confluence, cells were scraped in phosphate buffered saline without Ca^2+ and Mg^2+ and collected by centrifugation at 1500×g for 10 minutes. The cells were homogenised in Tris-HCl 50 mM using an Ultraturrax homogenizer and centrifuged for 10 minutes at 23,500×g. The pellet was washed once by resuspension and rehomogenization and the final pellet was resuspended in Tris-HCl, divided in 1 ml aliquots and stored at −70° C.
(§3) Membranes were thawed and re-homogenized in incubation buffer (glycylglycine 25 mM, pH 8.0). […] Filters were rinsed extensively with ice-cold rinsing buffer (Tris-HCl 50 mM pH 7.4). Filter-bound radioactivity was determined by scintillation counting in a Topcount (Packard, Meriden, Conn.) and results were expressed as counts per minute (cpm). Non-specific binding was determined in the presence of 1 μM oxymetazoline for the hα2A receptor and 1 μM spiroxatrine for hα2C receptors.
(§4) Data from assays in the presence of compound were calculated as a percentage of total binding measured in the absence of test compound. Inhibition curves, plotting percent of total binding versus the log value of the concentration of the test compound, were automatically generated, and sigmoidal inhibition curves were fitted using non-linear regression. The pIC50 values of test compounds were derived from individual curves.

In another assay the target is T2, 5HT-Transporter (Homo sapiens, UniProt P31645).
T2 construct: Human platelet membranes (Oceanix Biosciences Corporation, Hanover, Md., USA) were thawed; tissue Oceanix Biosciences Corporation; host or cells: human platelet membranes
Kind of assay: Binding experiment for the 5HT-transporter ([3H]paroxetine, human platelet membranes). How it is done:
as §1
Human platelet membranes (Oceanix Biosciences Corporation, Hanover, Md., USA) were thawed, diluted in buffer (Tris-HCl 50 mM, 120 mM NaCl and 5 mM KCl) and quickly (max 3 s) homogenised with an Ultraturrax homogenizer. […] Incubation was stopped by rapid filtration of the incubation mixture over GF/B filters, pre-wetted with 0.1% polyethyleneamine, using a Filtermate196 harvester (Packard, Meriden, Conn.). Filters were rinsed extensively with ice-cold buffer and radioactivity on the filters was counted in a Topcount liquid scintillation counter (Packard, Meriden, Conn.). Data were expressed as cpm. Imipramine (at 1 μM final concentration) was used to determine the non-specific binding.
as §4

Assay [2] has as its target T3, human adrenergic-α2A receptor (Homo sapiens, UniProt P08913).
T3 construct: expressed in transfected cells; host or cells: CHO cells, stably transfected; membranes
T3 sequence (P08913 1-465): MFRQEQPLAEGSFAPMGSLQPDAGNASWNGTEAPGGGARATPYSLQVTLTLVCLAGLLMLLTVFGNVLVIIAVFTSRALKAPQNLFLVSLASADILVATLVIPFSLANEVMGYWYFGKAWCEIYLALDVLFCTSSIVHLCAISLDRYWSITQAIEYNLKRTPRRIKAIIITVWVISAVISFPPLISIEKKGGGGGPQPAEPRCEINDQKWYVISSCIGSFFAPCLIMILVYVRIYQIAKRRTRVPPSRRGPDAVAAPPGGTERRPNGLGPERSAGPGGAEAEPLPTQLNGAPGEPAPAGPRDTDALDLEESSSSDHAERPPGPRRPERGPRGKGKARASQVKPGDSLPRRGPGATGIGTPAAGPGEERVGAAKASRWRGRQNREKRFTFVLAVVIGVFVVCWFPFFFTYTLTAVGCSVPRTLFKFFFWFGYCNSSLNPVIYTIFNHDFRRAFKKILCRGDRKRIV
Briefly: Radioligand binding experiment for hα2A receptor ([3H]raulwolscine, CHO cell membranes). On the procedure:
as §1, §2, §3, §4

The mark [3] stands for this setting: [3H]raulwolscine 1 nM, membranes of CHO cells transfected with human α2C receptor, read-out: h-α2C pIC50 (converted).
The mark [4] stands for this setting: [3H]paroxetine 0.5 nM, read-out: h-5HTT pIC50 (converted).
The mark [5] stands for this setting: [3H]raulwolscine 1 nM, membranes of CHO cells transfected with human α2A receptor, read-out: h-α2A pIC50 (converted).

T2 sequence (P31645 whole entry): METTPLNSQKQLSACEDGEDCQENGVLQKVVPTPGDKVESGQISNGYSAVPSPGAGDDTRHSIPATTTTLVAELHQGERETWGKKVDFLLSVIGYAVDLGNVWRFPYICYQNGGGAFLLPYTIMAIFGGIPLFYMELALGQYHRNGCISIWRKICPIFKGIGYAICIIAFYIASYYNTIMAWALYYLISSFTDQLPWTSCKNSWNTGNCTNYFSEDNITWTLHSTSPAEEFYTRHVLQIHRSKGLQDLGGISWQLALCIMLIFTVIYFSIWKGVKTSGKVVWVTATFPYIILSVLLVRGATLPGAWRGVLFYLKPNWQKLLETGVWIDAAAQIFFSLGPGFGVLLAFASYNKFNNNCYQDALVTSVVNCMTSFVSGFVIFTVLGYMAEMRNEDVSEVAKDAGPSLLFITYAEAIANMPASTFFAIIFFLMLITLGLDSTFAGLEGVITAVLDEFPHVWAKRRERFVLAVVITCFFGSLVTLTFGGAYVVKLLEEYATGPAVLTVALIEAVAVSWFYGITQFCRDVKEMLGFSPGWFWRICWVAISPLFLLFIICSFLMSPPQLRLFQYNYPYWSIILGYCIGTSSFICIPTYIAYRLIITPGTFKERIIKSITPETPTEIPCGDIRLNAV

Regarding `O=c1[nH]ccnc1N1CCN(Cc2cccc(-c3ccccc3)c2)CC1` [Compound 3-3], the IC50 was 316 nM in assay [1] (setting [3]), above 10000 nM on 5HT-Transporter (setting [4]) and 316 nM in assay [2] (setting [5]).
Regarding `CN(CCc1ccccc1)C1CCN(c2nccn(CCC(=O)c3ccccc3)c2=O)CC1` [Compound 8-2], the IC50 in assay [1] (setting [3]) is 63.1 nM; on 5HT-Transporter (setting [4]), above 10000 nM; in assay [2] (setting [5]), 316 nM.
Consider `O=c1c(N2CCN(CCc3ccccc3)CC2)nccn1C/C=C/c1ccccc1` [Compound 10-6], for which the IC50 in assay [1] (setting [3]) is 501 nM; on 5HT-Transporter (setting [4]), 5010 nM; in assay [2] (setting [5]) it was 1000 nM.
In the same order, the values of `O=c1c(N2CCN(CCc3ccccc3)CC2)nccn1Cc1ccc(Cl)s1` [Compound 10-11] are 200 nM, above 10000 nM and 794 nM.
For `O=c1c(NC2CCN(Cc3ccc(OCc4ccccc4)cc3)CC2)nccn1Cc1cccc(Br)c1` [Compound 11-6], the IC50 in assay [1] (setting [3]) is 794 nM; at 5HT-Transporter (setting [4]), 1580 nM; in assay [2] (setting [5]), 631 nM.
On to `O=C(Cn1ccnc(NC2CCN(CC(c3ccccc3)c3ccccc3)CC2)c1=O)c1ccccc1` [Compound 9-10], for which the values for the IC50 (in assay [1] (setting [3]); at 5HT-Transporter (setting [4]); in assay [2] (setting [5])) were 631 nM, above 10000 nM and 2510 nM, respectively.
In the case of `NCc1ccc(Cn2ccnc(NC3CCN(CCc4ccccc4)CC3)c2=O)cc1` [Compound 6-3], the IC50 in assay [1] (setting [3]) was 398 nM; on 5HT-Transporter (setting [4]), above 10000 nM; in assay [2] (setting [5]), 1260 nM.
With `O=c1c(NC2CCN(CCCc3ccccc3)CC2)nccn1Cc1ccccc1Br` [Compound 7-11], the IC50 was 398 nM in assay [1] (setting [3]), 2000 nM at 5HT-Transporter (setting [4]) and 1580 nM in assay [2] (setting [5]).
In the same order, the values of `O=c1c(NC2CCN(Cc3ccc(-c4ccccc4)cc3)CC2)nccn1Cc1ccncc1` [Compound 1-10] are 794 nM, above 10000 nM and 3160 nM.
For `O=c1c(NC2CCN(Cc3ccc(-c4ccccc4)cc3)CC2)nccn1Cc1ccc2ccccc2n1` [Compound 1-11] the same measures were 794 nM, 501 nM and 631 nM.
For `CC(C)(C)OC(=O)NCc1ccc(Cn2ccnc(NC3CCN(CC(c4ccccc4)c4ccccc4)CC3)c2=O)cc1` [Compound 9-4] the same measures were 631 nM, above 10000 nM and 3160 nM.
On to `O=c1c(NC2CCN(CCc3ccccc3)CC2)nccn1Cc1cccc(Br)c1` [Compound 6-8], for which the IC50 in assay [1] is 398 nM; on 5HT-Transporter (h-5HTT pIC50, [3H]paroxetine 0.5 nM) it was 5010 nM; in assay [2] it was 1000 nM.
On to `O=c1c(NC2CCN(Cc3ccc(-c4ccccc4)cc3)CC2)nccn1Cc1cccc(Br)c1` [Compound 1-7], for which the IC50 was 398 nM in assay [1] (setting [3]), 1000 nM on 5HT-Transporter (setting [4]) and 1000 nM in assay [2] (setting [5]).
Regarding `NCc1ccc(Cn2ccnc(N3CCC(c4ccccc4)CC3)c2=O)cc1` [Compound 4-2], the figures for the IC50 (in assay [1] (setting [3]); at 5HT-Transporter (setting [4]); in assay [2] (setting [5])) were 794 nM, above 10000 nM and 501 nM, respectively.
Consider `CC(C)(C)OC(=O)NCCCn1ccnc(N2CCN(Cc3ccc(-c4ccccc4)cc3)CC2)c1=O` [Compound 2-1], for which the figures for the IC50 (in assay [1] (setting [3]); at 5HT-Transporter (setting [4]); in assay [2] (setting [5])) were 631 nM, 1580 nM and 1260 nM, respectively.
Consider `NCc1ccc(Cn2ccnc(NC3CCN(CCCc4ccccc4)CC3)c2=O)cc1` [Compound 7-1], for which the IC50 in assay [1] (setting [3]) was 100 nM; at 5HT-Transporter (setting [4]), 794 nM; in assay [2] (setting [5]) it was 316 nM.
For the molecule `O=C1c2ccccc2C(=O)N1CCCn1ccnc(N2CCN(Cc3cccc(-c4ccccc4)c3)CC2)c1=O` [Compound 3-9], the figures for the IC50 (in assay [1] (setting [3]); at 5HT-Transporter (setting [4]); in assay [2] (setting [5])) were 794 nM, 794 nM and 1580 nM, respectively.
As for `O=c1c(NC2CCN(Cc3ccc(-c4ccccc4)cc3)CC2)nccn1Cc1ccc(Br)cc1` [Compound 1-8], the IC50 in assay [1] (setting [3]) was 794 nM; on 5HT-Transporter (setting [4]), 631 nM; in assay [2] (setting [5]), 1000 nM.
For `O=C1c2ccccc2C(=O)N1CCCn1ccnc(NC2CCN(CC(c3ccccc3)c3ccccc3)CC2)c1=O` [Compound 9-6], the IC50 in assay [1] (setting [3]) is 398 nM; on 5HT-Transporter (setting [4]) it was 6310 nM; in assay [2] (setting [5]), 1260 nM.
In the case of `NCc1ccc(Cn2ccnc(N3CCN(CCc4ccccc4)CC3)c2=O)cc1` [Compound 10-1], the IC50 in assay [1] (setting [3]) is 631 nM; on 5HT-Transporter (setting [4]), above 10000 nM; in assay [2] (setting [5]) it was 794 nM.
On to `O=c1c(NC2CCN(CCCc3ccccc3)CC2)nccn1Cc1ccc(Br)cc1` [Compound 7-13], for which the results for the IC50 (in assay [1] (setting [3]); on 5HT-Transporter (setting [4]); in assay [2] (setting [5])) were 501 nM, 1000 nM and 1580 nM, respectively.
For `O=c1c(N2CCC(c3ccccc3)CC2)nccn1Cc1ccc2ccccc2c1` [Compound 4-1], the figures for the IC50 (in assay [1] (setting [3]); on 5HT-Transporter (setting [4]); in assay [2] (setting [5])) were 501 nM, 3980 nM and 501 nM, respectively.
`CCCn1ccnc(NC2CCN(CCCc3ccccc3)CC2)c1=O` [Compound 7-8]: the IC50 in assay [1] (setting [3]) is 501 nM; on 5HT-Transporter (setting [4]) it was 5010 nM; in assay [2] (setting [5]), 794 nM.
For the molecule `NCc1ccc(Cn2ccnc(NC3CCN(Cc4ccccc4)CC3)c2=O)cc1` [Compound 5-2], the IC50 was 631 nM in assay [1] (setting [3]), above 10000 nM on 5HT-Transporter (setting [4]) and 1000 nM in assay [2] (setting [5]).
On to `O=c1c(NC2CCN(CC(c3ccccc3)c3ccccc3)CC2)nccn1Cc1cccc(Br)c1` [Compound 9-8], for which the figures for the IC50 (in assay [1] (setting [3]); at 5HT-Transporter (setting [4]); in assay [2] (setting [5])) were 631 nM, 5010 nM and 1260 nM, respectively.
